From patent publication US20100048633A1, “Piperidine-4-acrylamides” (priority 2007, published 2010)
pIC50: −log10 of the molar value.

Assays:
human CCR3 = target: T1, human CCR3 (Homo sapiens, UniProt P51677); test: binding of [125I]-human eotaxin to human CCR3 (SPA, membranes of RBL-2H3 cells expressing CCR3); conditions: [125I]-human eotaxin 50 pM, 4 hours at room temperature; read-out: IC50 (concentration of test compound at which 50% inhibition of eotaxin binding to CCR3 occurs)
T1 construct: expressed in transfected cells; membranes
T1 sequence (P51677 1-355): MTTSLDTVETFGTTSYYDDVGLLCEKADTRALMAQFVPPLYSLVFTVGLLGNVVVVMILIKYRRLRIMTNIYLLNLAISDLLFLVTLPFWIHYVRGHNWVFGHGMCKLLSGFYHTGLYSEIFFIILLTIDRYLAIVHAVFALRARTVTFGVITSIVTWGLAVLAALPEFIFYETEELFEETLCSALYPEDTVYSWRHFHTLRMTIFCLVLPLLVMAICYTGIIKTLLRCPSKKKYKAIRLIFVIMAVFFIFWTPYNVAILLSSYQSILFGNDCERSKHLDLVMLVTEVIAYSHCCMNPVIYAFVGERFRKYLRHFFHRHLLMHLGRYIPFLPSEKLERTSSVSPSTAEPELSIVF
Experimental: In this assay the effect of the compounds of the present invention on the binding of human eotaxin to human CCR3 is determined. Recombinant cells expressing human CCR3 are captured by wheatgerm agglutinin (WGA) polyvinyltoluidene (PVT) SPA beads (available from Amersham), through a specific interaction between the WGA and carbohydrate residues of glycoproteins on the surface of the cells. [^125I]-human eotaxin (available from Amersham) binds specifically to CCR3 receptors bringing the [^125I]-human eotaxin in close proximity to the SPA beads. Emitted â-particles from the [^125I]-human eotaxin excite, by its proximity, the fluorophore in the beads and produce light.
Preparation of Assay Buffer 5.96 g HEPES and 7.0 g sodium chloride are dissolved in distilled H2O and 1 M aq. CaCl2 (1 ml) and 1 M aq. MgCl2 (5 ml) are added. The pH is adjusted to 7.6 with NaOH and the solution made to a final volume of 1 L using distilled H2O. 5 g of bovine serum albumin and 0.1 g NaN3 are dissolved in the solution and the resulting buffer stored at 4° C. […]
The assay is performed in a final volume of 250 μl per well of an Optiplate™ microplate (ex Canberra Packard). […] The resulting scintillations are counted using a Canberra Packard TopCount™ scintillation counter, each well being counted for 1 minute. […]

| melting point | pIC50 (human CCR3) | SMILES |
| --- | --- | --- |
| 83 to 85 °C | – | O=C(C=C1CCN(Cc2ccc(F)cc2)CC1)NCc1ccc(F)c(F)c1 [Example 1, N-(3,4-Difluoro-benzyl)-2-[1-(4-fluoro-benzyl)-piperidin-4-ylidene]-acetamide] |
| 117 to 120 °C | ~6.70 | O=C(C=C1CCN(CCc2ccc(F)cc2)CC1)NCc1ccc(F)c(F)c1 [Example 17, N-(3,4-Difluoro-benzyl)-2-{1-[2-(4-fluoro-phenyl)-ethyl]-piperidin-4-ylidene}-acetamide] |
